Tested on: mucositis induced by the administration of 5-FU in hamsters
Assay: 5-fluorouracil plus mechanical irritation induced oral mucositis model, cheek pouch
Assay type: in vivo, Golden Syrian hamsters
Description: An animal model for studying the acute effects of chemotherapy and radiotherapy in the oral cavity was developed by Dr. Stephen T. Sonis at Brigham and Women's Hospital, Boston, Mass. This model was particularly suited for testing the efficacy of growth factors on chemotherapy mucositis. This model utilizes an acute regimen of 5-fluorouracil (5-FU) combined with mechanical irritation to induce mucositis. More specifically, intraperitoneal (i.p.) injections of 5-fluorouracil were combined with superficial mechanical mucosal irritation to result in clinical breakdown of the oral mucosa as characterized by ulcerative mucositis in Golden Syrian hamsters. […] For these reasons, it was believed that this model would be extremely beneficial in evaluating growth factors to treat mucositis.
The following experiment was performed to determine the effects of growth factors, specifically TGF-α, on the prevention and healing of mucositis induced by the administration of 5-FU in hamsters. Example 1:
One hundred young male Golden Syrian hamsters were divided into four groups of 25 animals each. Beginning on day 0, animals received twice daily dosing of their cheek pouch buccal mucosa as follows:
Medication was applied in a volume of 0.2 ml of Orabase per cheek pouch. The right cheek pouch was mechanically irritated by superficial scratching starting at day 0, daily until erythematous changes were noted. For most animals, such changes were noted by day 2 and mechanical irritation discontinued. For the remaining animals, mechanical irritation was stopped at day 3. Beginning on day 0, all of the animals received i.p. injections of 5-FU at a dose of 60 mg/kg body weight, with additional dosing on days 5 and 10. The animals were observed and weighed daily. On days 2, 4, 6, 8, 10, 12, 14, 16, 18 and 20, two animals were randomly sacrificed in each group. Cheek pouches were biopsied. The tissue was then placed in 10% formalin for histologic study according to established methods, and subsequently stained with hematoxylin and eosin. The following parameters were evaluated and scored: inflammatory infiltrate, degree of epithelial atropy, extent of epithelial breakdown/ulceration, mitotic activity at would margins and evidence of superficial/secondary infection. Two randomly selected hamsters from each group had their cheek pouches photographed daily. The animals were weighed and observed daily. […] Mucositis was scored using the following established scale:
Grade 0--no evidence of ulcers or mucositis
Grade 1--erythema but no ulceration
Grade 2--1 or 2 small (<2 mm), single ulcers
Grade 3--1 large or 3 or more small ulcers
Grade 4--multiple large ulcers and/or involvement of 50% of pouch mucosal surface area
The animals were evaluated both for the ability of TGF-α to delay the onset and reduce the severity of mucositis. The data presented here are based upon clinical observations. Histologic evaluation of biopsied cheek pouches corroborated these observations.

With “transforming growth factor-alpha [TGF-α]” the “averaged mucositis grades (severity of mucositis)” value (Group III, TGF-α in Orabase 2 μg/dose (low dose), twice daily, compared among groups) was “best results”, the “development of grade 3/4 mucositis” value (Group III, TGF-α in Orabase 2 μg/dose, twice daily) was “did not develop” and the “day of development of grade 3/4 mucositis” value (Group IV, TGF-α in Orabase 20 μg/dose, twice daily) was 9 days. The “onset of mucositis (development of grade 3 and 4 mucositis)” value (TGF-α groups vs Group I (none) and Group II (Orabase only)) was “delayed the onset of mucositis” and the “averaged mucositis grades (severity of mucositis)” value (groups receiving TGF-α in Orabase (2 or 20 μg/dose), topical to cheek pouch twice daily, 18 day period, vs control groups) was “lower overall scores”.
